Assay results: patent US9212204B2, “Treatment of rett syndrome using glycyl-L-2-methylprolyl-L-glutamic acid” (priority 2011, dated 2015)
Non-standard residues stand in square brackets, D forms with d. Residues, ends and D or L forms follow the SMILES beside them. αMeP = C[C@@]1(C(=O)O)CCCN1

Legend:
[1] = tested on: 12-month old male Wistar rats; experiment: Morris water maze test, spatial reference memory; type: in vivo, rat
Method: We used male Wistar rats 12, 8 or 4 months of age.
The Morris water maze test was conducted using a black plastic pool filled to a depth of 25 cm with water colored black with a non-toxic dye. […] The platform remained in that position though the training.
The experiment used extra-maze cues (i.e. objects in the room surrounding the pool) that the rats could use to navigate to the platform. Distinctive posters or paintings were hung on the walls. Furniture in the room was not moved during the testing period. The placement of the pool allowed the experimenter an easy access to it from all sides. The pool was emptied and refilled daily during testing, with water at 25° C.+/−2° C.
The furthermost point in the pool (relative to the position of the experimenter) was designated as “north”, and the other compass points “east”, “south” and “west” were the right-most, bottom and left-most points of the pool respectively. These points were marked with tape on the outside of the pool.
Rats in each group were trained to swim to the submerged platform. The rats received six 60-second trials per day for four consecutive days. A trial began by placing the rat into the water facing the wall of the pool, at one of four start locations (north, south, east, west). […]

[2] = tested on: slices of hippocampus from MeCP2 deficient mice; experiment: Hippocampal long-term potentiation in MeCP2 deficient mice; type: in vivo, mouse; settings: 20 mg/kg/day i.p. from week 4 to week 9; vs saline
Source text: MeCP2 deficient mice have been previously reported to suffer from functional and ultrastructural synaptic dysfunction, significant impairment of hippocampus-dependent memory and hippocampal long-term potentiation (LTP) (Moretti et al. The Journal of Neuroscience. 2006. 26(1):319-327). To test the effects of the G-2-MePE treatment on synaptic function in the RTT model we compared hippocampal LTP in both vehicle and G-2-MePE treated animals at 9 weeks of age. To do so, we measured the slope of the fEPSP as a % of baseline potential in neurons in slices of hippocampus from MeCP2 deficient mice treated with either saline or G-2-MePE (FIG. 23).

[3] = tested on: subjects with Rett Syndrome; experiment: Placebo controlled study in subjects with Rett Syndrome; type: in vivo, human
Source text: Thirty subjects with Rett Syndrome are recruited, Subjects are female and aged between […] (Mean=12.1 SD=4.4). All subjects have an IQ<60 and mutations of the MECP2 gene. Subjects also show ether spike activity in the EEG or an increase in lower frequency bands of the BEG as detected by Fast Fourier Transform (FFT). Subjects are instructed that concomitant medications are to be stable for at least six weeks prior to study. Subjects receiving medication to treat signs of inattention are tested in the morning and instructed to take their medication in the afternoon. Subjects with QTc interval >451 msec are excluded.
The study is a randomized double blind placebo controlled parallel study with three doses of either placebo, 10 mg/kg T.I.D oral G-2-MePE for five days, or 30 mg/kg T.I.D. oral G-2-MePE.
Subjects are tested at baseline using the following instruments: The Rett Syndrome Natural History/Clinical Severity Scale, Aberrant Behavior Checklist Community Edition (ABC), Vinelands, Clinical Global Impression of Severity (CGI-S) and their carers completed the Caregiver Strain Questionnaire (CSQ).
Subjects are brought into clinic on an inpatient basis to enable initial baseline recordings of EEG, ECG and respiratory rate continuously for 24 hours using polysomnography technology. Hand movements are also recorded using the Q-Sensor™. Derived EEG measures include: spikes per unit time in the EEG, overall power of frequency bands of the EEG, QTc and heart rate variability (HRV), and respiratory irregularities.
Adverse events are also recorded using standard safety measures and the SMURF elicitation of adverse events
Statistically, the effect of treatment with G-2-MePE is analysed by conducting a repeated analysis of covariance (ANCOVA) on the effect of treatment on change from baseline scores.

[4] = 30 mg/kg T.I.D. oral, compared to placebo

In the case of `C[C@@]1(C(=O)N[C@@H](CCC(=O)O)C(=O)O)CCCN1C(=O)CN` [Example G-2-MePE, Glycyl-L-2-methylprolyl-L-glutamic acid] (H-Gly-[αMeP]-Glu-OH), the “time needed to reach the platform, retention phase” value ([1]; high (4.8 mg/day) or low (0.96 mg/day) dose, vs saline-treated controls, 12 month old rats) is reported as “decrease in the time needed to reach the platform”, the “retention of the original water maze task” value ([1]; high dose 4.8 mg/day s.c. minipump over 3 weeks, 4-week delay, vs 3-week vehicle) is reported as “improved the retention” and the “slope of fEPSP (hippocampal LTP)” value [2] is reported as “increased”. The “power of the delta band of the EEG” value [3, 4] was “decreases”, the spike activity [3, 4] was “decreases” and the “subscales Nonverbal Communication, Epilepsy/Seizures, Hand use” value [3, 4] was “significant effects”. For the same molecule, the “Serious Adverse Events” value ([3]; 10 or 30 mg/kg T.I.D. oral) was “No Serious Adverse Events”, the heart rate variability ([3]; 10 or 30 mg/kg T.I.D. oral) was “No effects” and the “increases in QTC” value ([3]; 10 or 30 mg/kg T.I.D. oral) was “No instances of increases”. The respiratory rate ([3]; 10 or 30 mg/kg T.I.D. oral) was “No effects”, the adverse events ([3]; 10 or 30 mg/kg T.I.D. oral, vs placebo) was “no more adverse events than are present during treatment with placebo” and the tolerability ([3]; Rett Syndrome population) was “well tolerated”. The “Rett Syndrome Natural History/Clinical Severity Score” value ([3]; overall) was “no significant effect overall”, the “spikes per unit time in the EEG” value ([3]; overall treatment effect) was “significant overall reduction” and the “total hand movements per twenty-four hour period (Q-Sensor)” value ([3]; significant for the 30 mg/kg T.I.D. dose compared to placebo) was “reduces”.
